Patent publication US11426367B2, “Methods of treating substance abuse” (Perception Neuroscience, Inc., priority 2018, dated 2022)
“Also recorded” adds a separate entry of the source.

How the values were obtained:
patients with depression = settings: oral; Non Patent Literatures 15 and 16; cited from earlier work
[1] = tested on: rewarding effects of morphine; settings: Table 11, Suzuki et al., 2000; cited from earlier work
Control C57/B6 mice = experiment: Conditioned place preference test (dependence test) in control mice; settings: control mice, 10 mg/kg
Procedure: 15-minute habituation was performed for 3 days. Then, 30-minute conditioning was performed on day 4 to day 10, and a behavioral evaluation test was performed on day 11. Saline was injected on day 5, day 7, and day 9. […] In each of the groups, the injection was performed three times, i.e., on day 4, day 6, and day 8. Saline means a group injected with saline.
The administration of an agent was performed by the same methods as the methods described in Example 2.
The place preference test was performed using a conditioned place preference test apparatus (BrainScienceIdea Co., Ltd., Osaka, Japan). The analysis of the results of the place preference test was performed by one-way analysis of variance (one-way ANOVA), followed by a least significant difference test (LSD test). Data are presented as the mean plus minus standard error of the mean (n=9 or 10 mice/group). *p<0.05 and **p<0.01 indicate significant differences as compared to a group injected with saline.

[2] = tested on: development of drug tolerance to ethanol; settings: tilt-plane test, Khanna et al., 1993; cited from earlier work
Morphine Seizures = settings: Not blocked by naloxone; Kolesnikov et al., 1997; cited from earlier work
[3] = tested on: medial forebrain bundle self-stimulation in rats; settings: doses 5.6, 10 mg/kg, Hillhouse et al., 2014; cited from earlier work
[4] = tested on: medial forebrain bundle self-stimulation in rats; experiment: Intracranial self-stimulation (ICSS), frequency-rate procedure; settings: for M50, Test, mean log M50 frequency (SEM) / Threshold (T0), Test, mean log T0 frequency (SEM) / M50, Baseline, mean log M50 frequency (SEM) / Threshold (T0), Baseline, mean log T0 frequency (SEM): 10 rats
[5] = tested on: morphine withdrawal signs in rats; experiment: Naloxone-precipitated withdrawal from subchronic morphine; type: in vivo; settings: 0.25 mg/kg i.p. before naloxone 1 mg/kg SC, morphine 10 mg/kg SC b.i.d.
Procedure: Forty (40) male Wistar rats served as test subjects in this study. Animals were pair housed with unrestricted access to rodent chow and water (SOP ROD.03.01, SOP ROD.04.01, SOP ROD.18). […] All experimental activity occurring during the animals' light cycle. All animal use procedures were performed in accordance with the principles of the Canadian Council on Animal Care (CCAC).
Forty (40) male Wistar rats were assigned to 5 groups of N=8 rats per group. Group A was dosed with saline vehicle (Sal; subcutaneous (SC) route) twice daily (approx. 08:00±1 h and 18:00±1 h) for 12 days. […] This treatment regimen was designed to induce opioid dependence (Erami et al., 2012). […] On days 9 and 12, rats were tested for naloxone precipitated withdrawal. According to a cross-over design (see Table 4: Treatment Groups), all rats in each group received either acute saline, or naloxone hydrochloride (1 mg/kg; dose volume 2 ml/kg) injection by the SC route, 5 minutes prior to behavioral testing. […] Lofexidine doses are based on literature values (e.g. Shearman et al., 1979). Immediately after vehicle or naloxone injection, rats were transferred to activity chambers for 30 minutes where the animals were visually assessed for somatic signs associated with opioid withdrawal (e.g. writhes, chews, ptosis, WDS, shakes, tremor, penile grooming, body weight change; see Higgins and Sellers, 1994). Simultaneously, the activity pattern (distance travelled, rearing) of each rat was automatically recorded.
Locomotor activity. Spontaneous activity in the rats was measured with the automated Med Associates activity test chamber for 30 minutes with 10-minute time bins. The tracking arena was 17″W×17″L×12″H, sensor bars are secured 1″ above the floor to track distance travelled, and a second set of sensor bars are placed ˜5″ above the floor to measure vertical movement and rearing activity. The parameters set on the tracking software were as follows: resolution—50 milliseconds (ms), box size—4 beams, resting delay—500 ms, and ambulatory trigger—2 (SOP ROD.25). […]

[6] = 3 mg/kg i.p. 2 hours prior to test session
[7] = 10 mg/kg i.p. 2 hours prior to test session
[8] = 30 mg/kg i.p. 2 hours prior to test session
[9] = baseline session before dosing on the 3 mg/kg test day
[10] = baseline session before dosing on the 10 mg/kg test day
[11] = baseline session before dosing on the 30 mg/kg test day

SMILES: CNC1(c2ccccc2Cl)CCCCC1=O (racemic) [RS(+/−)-ketamine]
- effective oral doses in patients with depression (patients with depression): 0.5 mg/kg
- Morphine CPP, dose blocking the rewarding effects of morphine [1]: 10 mg/kg
- CPP score (conditioned place preference test) (Control C57/B6 mice): significantly increased the CPP score
- Ethanol Tolerance, dose blocking development of tolerance [2]: 1 - tilt-plane test mg/kg
- Morphine Seizures, dose (Morphine Seizures): 0.3 mg/kg
- ICSS, anhedonia [3]: 5.6, 10 anhedonia

SMILES: COC(=O)[C@H]1[C@@H](OC(=O)c2ccccc2)C[C@@H]2CC[C@H]1N2C [Cocaine, cocaine]
- ICSS frequency-rate response curve ([4]; rats, 10 mg/kg): shifts the frequency curve to the left

SMILES: N[C@@]1(c2ccccc2Cl)CCC[C@@H](O)C1=O [R-hydroxynorketamine]
- M50, Test, mean log M50 frequency (SEM) [4, 6]: 2.00 (0.01) log/Hz
- Threshold (T0), Test, mean log T0 frequency (SEM) [4, 6]: 1.92 (0.02) log/Hz
- M50, Test, mean log M50 frequency (SEM) [4, 7]: 2.00 (0.01) log/Hz
- Threshold (T0), Test, mean log T0 frequency (SEM) [4, 7]: 1.90 (0.02) log/Hz
- M50, Test, mean log M50 frequency (SEM) [4, 8]: 1.99 (0.02) log/Hz
- Threshold (T0), Test, mean log T0 frequency (SEM) [4, 8]: 1.91 (0.03) log/Hz
- M50, Baseline, mean log M50 frequency (SEM) [4, 9]: 2.00 (0.02) log/Hz
- Threshold (T0), Baseline, mean log T0 frequency (SEM) [4, 9]: 1.89 (0.02) log/Hz
- M50, Baseline, mean log M50 frequency (SEM) [4, 10]: 1.98 (0.01) log/Hz
- Threshold (T0), Baseline, mean log T0 frequency (SEM) [4, 10]: 1.89 (0.02) log/Hz
- M50, Baseline, mean log M50 frequency (SEM) [4, 11]: 1.99 (0.02) log/Hz
- Threshold (T0), Baseline, mean log T0 frequency (SEM) [4, 11]: 1.90 (0.02) log/Hz
- ICSS frequency-rate response curve ([4]; rats, 3, 10 or 30 mg/kg i.p. 2 hours prior to test session, vs saline vehicle): did not alter the frequency-response function

SMILES: CC(Oc1c(Cl)cccc1Cl)C1=NCCN1 (stereo not drawn) [lofexidine, Lofexidine]
- overall morphine withdrawal scores (naloxone-precipitated withdrawal signs) [5]: significantly attenuated the naloxone-induced withdrawal signs; also recorded: effective
